Read-outs that look alike come from different tables or passages of the source.
Tests used:
[1] = molecular target: T1, human recombinant dopamine D2L receptor (Homo sapiens, UniProt P14416); test: Dopamine D2L radioligand binding ([3H]Spiperone)
T1 construct: expressed in transfected cells; host or cells: CHO cells
Description: To evaluate in radioligand binding assays the activity of compounds of the invention, human recombinant dopamine D2L receptor expressed in Chinese hamster ovary (CHO) cells (Grandy, D. K. et al. Proc. Natl. Acad. Sci. USA. 86:9762, 1989; Hayes, G. et al., Mol. Endocrinol. 6:920, 1992) in a modified Tris-HCl buffer (50 mM Tris-HCl, pH 7.4, 1.4 mM Ascorbic Acid, 0.001% BSA, 150 mM NaCl) was used. Compounds of the invention were incubated with 0.16 nM [^3H]Spiperone for 120 minutes at 25° C. Non-specific binding was estimated in the presence of […] Haloperidol. Receptor proteins were filtered and washed, the filters were then counted to determine [^3H]Spiperone specifically bound. Compounds were screened at 1 μM or lower, using 1% DMSO as vehicle. Biochemical assay results are presented as the percent inhibition of specific binding in Table 4.

[2] = molecular target: T2, human recombinant adrenergic α2A receptor (Homo sapiens, UniProt P08913); test: Adrenergic α2A radioligand binding ([3H]MK-912)
T2 construct: expressed in transfected cells; host or cells: insect Sf9 cells
T2 sequence (P08913 1-465): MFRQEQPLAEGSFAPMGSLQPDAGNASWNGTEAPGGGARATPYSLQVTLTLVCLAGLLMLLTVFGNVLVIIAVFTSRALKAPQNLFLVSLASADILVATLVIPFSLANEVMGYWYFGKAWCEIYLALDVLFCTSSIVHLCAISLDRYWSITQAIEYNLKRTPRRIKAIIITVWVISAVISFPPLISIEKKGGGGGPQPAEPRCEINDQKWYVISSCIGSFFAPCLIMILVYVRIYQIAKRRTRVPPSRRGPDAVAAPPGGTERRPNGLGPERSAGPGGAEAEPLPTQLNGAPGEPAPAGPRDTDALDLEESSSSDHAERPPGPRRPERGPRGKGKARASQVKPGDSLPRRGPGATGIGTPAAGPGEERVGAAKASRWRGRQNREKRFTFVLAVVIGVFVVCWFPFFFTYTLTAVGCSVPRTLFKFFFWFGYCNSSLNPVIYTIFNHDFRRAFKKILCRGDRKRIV
Description: To evaluate in radioligand binding assays the activity of compounds of the invention, human recombinant adrenergic α2A receptor expressed in insect Sf9 cells (Uhlen S et al. J Pharmacol Exp Ther. 271:1558, 1994) in a modified Tris-HCl buffer (50 mM Tris-HCl, pH 7.4, 12.5 mM MgCl2, 2 mM EDTA) was used. Compounds of invention were incubated with 1 nM [^3H]MK-912 for 60 minutes at 25° C. MK912 is (2S-trans)-1,3,4,5′,6,6′,7,12b-octahydro-1′,3′-dimethyl-spiro[2H-benzofuro[2,3-a]quinolizine-2,4′(1′H)-pyrimidin]-2′(3′H)-one hydrochloride Non-specific binding was estimated in the presence of 10 μM WB-4101 (2-(2,6-Dimethoxyphenoxyethyl)aminomethyl-1,4-benzodioxane hydrochloride). Receptor proteins were filtered and washed, the filters were then counted to determine [^3H]MK-912 specifically bound. Compounds were screened at 1 μM or lower, using 1% DMSO as vehicle. Biochemical assay results are presented as the percent inhibition of specific binding in Table 4.

[3] = molecular target: T3, human recombinant adrenergic α2B receptor (Homo sapiens, UniProt P18089); test: Adrenergic α2B radioligand binding ([3H]Rauwolscine)
T3 construct: expressed in transfected cells; host or cells: CHO-K1 cells
T3 sequence (P18089 1-450): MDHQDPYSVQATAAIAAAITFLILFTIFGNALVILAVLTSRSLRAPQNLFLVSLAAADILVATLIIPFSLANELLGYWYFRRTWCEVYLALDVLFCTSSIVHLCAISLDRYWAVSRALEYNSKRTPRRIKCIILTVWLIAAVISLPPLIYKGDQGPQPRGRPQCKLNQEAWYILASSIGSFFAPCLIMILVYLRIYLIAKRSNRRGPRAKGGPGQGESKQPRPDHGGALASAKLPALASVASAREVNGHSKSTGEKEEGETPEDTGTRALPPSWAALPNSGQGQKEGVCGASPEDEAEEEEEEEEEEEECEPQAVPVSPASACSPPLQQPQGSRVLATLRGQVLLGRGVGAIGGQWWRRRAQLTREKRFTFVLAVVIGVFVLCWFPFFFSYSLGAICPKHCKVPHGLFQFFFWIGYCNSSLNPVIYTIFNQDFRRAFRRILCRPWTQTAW
Description: To evaluate in radioligand binding assays the activity of compounds of the invention, human recombinant adrenergic α2B receptor expressed in Chinese hamster ovary (CHO-K1) cells (Uhlen S et al. Eur J. Pharmacol. 343(1):93, 1998) in a modified Tris-HCl buffer (50 mM Tris-HCl, pH 7.4, 12.5 mM MgCl2, 1 mM EDTA, 0.2% BSA) was used. Compounds of the invention were incubated with 2.5 nM [^3H]Rauwolscine for 60 minutes at 25° C. Non-specific binding was estimated in the presence of 10 μM Prozosin. Receptor proteins were filtered and washed, the filters were then counted to determine [^3H]Rauwolscine specifically bound. Compounds were screened at 1 μM or lower, using 1% DMSO as vehicle. Biochemical assay results are presented as the percent inhibition of specific binding in Table 4.

[4] = 2 h, 1 μM ligand conc., read-out: Percent Inhibition of ligand binding Dopamine (1 μM ligand conc.) D2L
[5] = 1 h, read-out: Percent Inhibition of ligand binding Adrenergic (1 μM ligand conc.) α2A
[6] = 1 h, read-out: Percent Inhibition of ligand binding Adrenergic (1 μM ligand conc.) α2B

T1 sequence (P14416 whole entry): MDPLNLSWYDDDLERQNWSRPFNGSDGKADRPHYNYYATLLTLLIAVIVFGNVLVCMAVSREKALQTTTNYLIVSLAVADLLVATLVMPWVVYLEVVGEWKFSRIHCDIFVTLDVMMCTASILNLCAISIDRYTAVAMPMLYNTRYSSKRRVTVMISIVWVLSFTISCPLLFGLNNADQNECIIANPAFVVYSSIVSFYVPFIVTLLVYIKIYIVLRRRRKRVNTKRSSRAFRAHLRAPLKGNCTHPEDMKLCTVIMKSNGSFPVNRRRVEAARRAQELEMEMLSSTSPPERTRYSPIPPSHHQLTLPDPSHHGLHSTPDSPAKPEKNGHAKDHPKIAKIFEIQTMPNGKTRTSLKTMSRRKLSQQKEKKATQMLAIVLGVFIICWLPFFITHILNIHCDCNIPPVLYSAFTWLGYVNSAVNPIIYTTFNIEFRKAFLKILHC

Row | Structure (SMILES) | inhibition at 1 µM [1, 4] [%] | inhibition at 1 µM [2, 5] [%] | inhibition at 1 µM [3, 6] [%] | inhibition at 1 µM ([1]; compound concentration 1 μM, read-out: Percentage inhibition of ligand binding to D2L receptor) [%] | inhibition at 3 µM ([1]; compound concentration 3 μM, read-out: Percentage inhibition of ligand binding to D2L receptor) [%] | inhibition at 10 µM ([1]; compound concentration 10 μM, read-out: Percentage inhibition of ligand binding to D2L receptor) [%] | inhibition at 1 µM ([2]; compound concentration 1 μM, read-out: Percentage inhibition of ligand binding to Adrenergic α2A receptor) [%] | inhibition at 1 µM ([3]; compound concentration 1 μM, read-out: Percentage inhibition of ligand binding to Adrenergic α2B receptor) [%]
1 | C/C(=C/n1c2c(c3cc(Cl)ccc31)CCN(C)C2C)c1ccccc1F (centres unmarked) [Compound 167] | 22 | 92 | 94 | – | – | – | – | –
2 | CC1c2c(c3cc(Cl)ccc3n2CCc2ccc(F)cc2)CCN1C (centres unmarked) [Compound 81] | 21 | 92 | 102 | – | – | – | – | –
3 | CCC1c2c(c3cc(C)ccc3n2C(=O)Cc2ccc(F)cc2)CCN1C (centres unmarked) [Compound 159] | -9 | 71 | 78 | – | – | – | – | –
4 | C/C(=C/n1c2c(c3cc(C)ccc31)CCN(C)C2C)c1ccccc1F (centres unmarked) [Compound 165] | 6 | 86 | 91 | – | – | – | – | –
5 | COc1ccc(C(O)Cn2c3c(c4cc(Cl)ccc42)CCN(C)C3)cc1OC (centres unmarked) [Compound 70] | 0 | 81 | 77 | – | – | – | – | –
6 | C/C(=C\n1c2c(c3cc(Cl)ccc31)CCN(C)C2)c1ccc(F)cc1 [Compound 90, (E)-6-chloro-9-(2-(4-fluorophenyl)prop-1-enyl)-2-methyl-2,3,4,9-tetrahydro-1H-pyrido[3,4-b]indole] | 36 | 88 | 97 | 39 | 70 | 91 | 88 | 97
7 | CN1CCc2c(n(CC(=O)Nc3ccc(F)cc3)c3ccc(Cl)cc23)C1 [Compound 15, 2-(6-chloro-1,2,3,4-tetrahydro-2-methylpyrido[3,4-b]indol-9-yl)-N-(4-fluorophenyl)acetamide] | -5 | 15 | 8 | – | – | – | – | –
8 | CN1CCc2c(n(CCN3CCCCC3)c3ccc(Cl)cc23)C1 [Compound 34, 6-chloro-2,3,4,9-tetrahydro-2-methyl-9-(2-(piperidin-1-yl)ethyl)-1H-pyrido[3,4-b]indole] | 9 | 66 | 38 | – | – | – | – | –
9 | Cc1ccc2c(c1)c1c(n2CC(=O)O)CN(C)CC1 [Compound 53, 2-(1,2,3,4-tetrahydro-2,6-dimethylpyrido[3,4-b]indol-9-yl)acetic acid] | 6 | 5 | 6 | – | – | – | – | –
10 | CN1CCc2c(n(CCc3ccc(F)cc3)c3ccc(Cl)cc23)C1 [Compound 3, 9-(4-fluorophenethyl)-6-chloro-2,3,4,9-tetrahydro-2-methyl-1H-pyrido[3,4-b]indole] | 47 | 99 | 108 | – | – | – | – | –
11 | Cc1ccc2c(c1)c1c(n2CC(=O)N2CCCCC2)CN(C)CC1 [Compound 57, 2-(2,6-dimethyl-3,4-dihydro-1H-pyrido[3,4-b]indol-9(2H)-yl)-1-(piperidin-1-yl)ethanone] | 6 | 4 | 29 | – | – | – | – | –
12 | C#CCn1c2c(c3cc(Cl)ccc31)CCN(C)C2 [Compound 125, 6-chloro-2,3,4,9-tetrahydro-2-methyl-9-(prop-2-yn1)-1H-pyrido[3,4-b]indole] | 19 | 89 | 67 | – | – | – | – | –

Source: patent publication US9260429B2, “Pyrido[3,4-B]indoles and methods of use” (Medivation Technologies, Inc., priority 2008, dated 2016)
